Columns and labels:
[1] = system: mouse neural stem cells (NSC) derived from the medial ganglionic eminence of E12.5 mouse embryos; assay: Oligodendrogenesis from mouse neural stem cells in vitro (flow cytometry, immunofluorescence); format: cell-based; details: NSC in PDGF-AA differentiation media, 48 hrs
From the text: Mice were bred and utilized as approved by the University of California, Irvine Institutional Animal Care and Use Committee. Dorsal forebrain cortical tissue was dissected from the medial ganglionic eminence (MGE) at embryonic day 12.5 (E12) of CD1 mice (Charles River) or Mgat5−/− C57BL/6 mice and their wildtype littermates and placed in dissection buffer comprising PBS, 0.6% glucose, and 50 U/mL Pen/Strep. Tissue from multiple embryos within the same litter were pooled, and a subsequent culture from a single litter was considered a biological repeat. The tissue was dissociated using 0.05% Trypsin-EDTA at 37° C. for 10 min, followed by treatment with soybean trypsin inhibitor (Life Technologies). Dissociated cells were re-suspended in proliferation medium comprising DMEM, 1× B27, 1× N2, 1 mM sodium pyruvate, 2 mM L-glutamine, 1 mM N-acetylcysteine, 20 ng/mL EGF (PeproTech), 10 ng/mL bFGF (PeproTech), and 2 μg/mL heparin and seeded at 150,000 cells/mL (non-tissue culture treated plastic plates) and grown as non-adherent spheres. Cell cultures were passaged approximately every 3 days using enzyme-free NeuroCult Chemical Dissociation Kit (Mouse) (StemCell Technologies). Cultures were passaged at least once prior to experimental use. For experiments, passaged cells were cultured in proliferation media (bFGF and EGF) or differentiation media (bFGF (10 ng/ml) and PDGF-AA (10 ng/ml); Life technologies) for 48 hours with or without the presence of GIcNAc (Ultimate Glucosamine, Wellesley Therapeutics) or kifunensine (GlycoSyn). Neurospheres were dispersed using the enzyme-free NeuroCult kit before being analyzed by flow cytometry using one or more of the following antibodies: anti-CD140a/PDGF-RA PE conjugate (1:200, A15785, Molecular Probes), anti-04 Alexa Fluor 488 conjugated (1:200, FAB1326G, RnD systems), Anti-GaIC Alexa Fluor 647 1:200, MAB342-AF647, Millipore), Anti-Olig2 (1:200, AB9610, Millipore) with anti-rabbit Alexa Fluor 488 (1:200, thermofisher).
For neural stem cell (NSC) immunofluorescence, whole neurospheres were seeded onto laminin-coated coverslips (Neuvitro) in proliferation medium. After 24 hours, proliferation media was removed and replaced with differentiation medium (same components as proliferation medium but excluding EGF, bFGF, and heparin) to induce differentiation. For analysis of mouse brains, brains were incubated in 30% sucrose for at least 72 hours, embedded in OCT (Tissue-tek), frozen for at least 48 hours at −80° C., and then cut at 40 microns on a cryostat. Multiple sections from −1 bregma to −2.5 bregma were then stained with antibodies for MBP (1:100; MAB386, Millipore), Olig2 (1:200; AB9610, Millipore), CC1 (1:100; OP90, Millipore), degraded MBP (1:200, AB5864, Millipore) and Amyloid Precursor Protein (APP, 1:200; clone 22C11). After overnight incubation with primary antibody, tissues were washed and incubated with secondary antibodies: goat anti-rat Alexa-fluor 488 (1:200, Thermofisher), goat anti-rabbit TxRd (1:200, Thermofisher). APP is a marker for neuro-axonal damage while co-staining for CC1 and Olig2 are markers of mature oligodendrocytes. In order to examine the amount of myelin, slices were incubated in Fluoromyelin (1:300; F34651, Thermofisher) for 45 minutes. Images were acquired on a Keyence fluorescence microscope. Mean fluorescence intensity of the medial corpus callosum was measured using ImageJ.
Oligodendrogenesis were examined in vitro using mouse neural stem cells (NSC) derived from the medial ganglionic eminence of E12.5 mouse embryos, where OPC's first appear. […] Consistent with increased PDGFRα surface expression, GIcNAc also promoted pre-oligodendrocyte differentiation as evidenced by augmented expression of Oligodendrocyte Transcription Factor (OLIG2) and increased numbers of 04 and GaIC positive cells (FIGS. 1A, 1B and 1C, FIGS. 5B and 5C). […]

[2] = Brain uptake of oral [U13C]GIcNAc, LC-MS/MS of perfused brains

Molecule | PDGFRα surface expression [1] | number of O4 cells induced by PDGF-AA differentiation media [1] | UDP-[U13C]-HexNAc in brain ([2]; suckling pups of treated lactating mothers) | UDP-[U13C]-HexNAc in brain ([2]; treated adult female mice, 1 mg/mL in drinking water, perfused brains)
O=C1N[C@@H]2[C@@H](O)[C@@H](O)[C@H](O)[C@@H](CO)N2C1=O [kifunensine, reference compound] | significantly reduced | significantly reduced | – | –
N-Acetyl-D-[UL-^13C6]glucosamine [[U^13C]GIcNAc] | – | – | identified | identified

— patent US20240415858A1, “PROMOTING MYELINATION BY N-ACETYLGLUCOSAMINE AND MODULATION OF N-GLYCAN BRANCHING” (THE REGENTS OF THE UNIVERSITY OF CALIFORNIA, priority 2021, published 2024)
